Experiments:
Experiment in all cases: relative viability (nuclei count vs DMSO), 5 days (fraction); higher = more cells survive
Idelalisib + Dasatinib = compound: CC[C@H](Nc1ncnc2[nH]cnc12)c1nc2cccc(F)c2c(=O)n1-c1ccccc1 [Idelalisib] + Cc1nc(Nc2ncc(C(=O)Nc3c(C)cccc3Cl)s2)cc(N2CCN(CCO)CC2)n1 [Dasatinib] (partner 0.075 µM)
Outline: (§1)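 Lung cancer cell lines were pin-tool dosed in 1536-well plates on the day after seeding, with either a lone drug or a fixed anchor-drug dose plus five library-drug doses (not always all listed) in √10 steps. Nuclei were counted on 4× images after 5 days. Relative viability is the ratio of treated-well to vehicle-well nuclei counts, with each value a median of duplicate plates.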

Idelalisib + Decitabine = compound: CC[C@H](Nc1ncnc2[nH]cnc12)c1nc2cccc(F)c2c(=O)n1-c1ccccc1 [Idelalisib] + Nc1ncn([C@H]2C[C@H](O)[C@@H](CO)O2)c(=O)n1 [Decitabine] (partner 2 µM)
Outline: as §1

Pemetrexed + Trametinib = compound: Nc1nc2[nH]cc(CCc3ccc(C(=O)N[C@@H](CCC(=O)O)C(=O)O)cc3)c2c(=O)[nH]1 [Pemetrexed] + CC(=O)Nc1cccc(-n2c(=O)n(C3CC3)c(=O)c3c(Nc4ccc(I)cc4F)n(C)c(=O)c(C)c32)c1 [Trametinib] (partner 0.02 µM)
Outline: as §1

Pemetrexed + Tozasertib = compound: Nc1nc2[nH]cc(CCc3ccc(C(=O)N[C@@H](CCC(=O)O)C(=O)O)cc3)c2c(=O)[nH]1 [Pemetrexed] + Cc1cc(Nc2cc(N3CCN(C)CC3)nc(Sc3ccc(NC(=O)C4CC4)cc3)n2)n[nH]1 [Tozasertib] (partner 0.1 µM)
Outline: as §1

| Cell Line | relative viability (Idelalisib + Dasatinib; first compound 0.04 µM) | relative viability (Idelalisib + Dasatinib; first compound 0.1265 µM) | relative viability (Idelalisib + Dasatinib; first compound 0.4 µM) | relative viability (Idelalisib + Dasatinib; first compound 1.265 µM) | relative viability (Idelalisib + Dasatinib; first compound 4 µM) | relative viability (Idelalisib + Decitabine; first compound 0.04 µM) | relative viability (Idelalisib + Decitabine; first compound 0.1265 µM) | relative viability (Idelalisib + Decitabine; first compound 0.4 µM) | relative viability (Idelalisib + Decitabine; first compound 1.265 µM) | relative viability (Idelalisib + Decitabine; first compound 4 µM) | relative viability (Pemetrexed + Trametinib; first compound 0.002 µM) | relative viability (Pemetrexed + Trametinib; first compound 0.006325 µM) | relative viability (Pemetrexed + Trametinib; first compound 0.02 µM) | relative viability (Pemetrexed + Trametinib; first compound 0.06325 µM) | relative viability (Pemetrexed + Trametinib; first compound 0.2 µM) | relative viability (Pemetrexed + Tozasertib; first compound 0.002 µM) | relative viability (Pemetrexed + Tozasertib; first compound 0.006325 µM) | relative viability (Pemetrexed + Tozasertib; first compound 0.02 µM) | relative viability (Pemetrexed + Tozasertib; first compound 0.06325 µM) | relative viability (Pemetrexed + Tozasertib; first compound 0.2 µM) |
| --- | --- | --- | --- | --- | --- | --- | --- | --- | --- | --- | --- | --- | --- | --- | --- | --- | --- | --- | --- | --- |
| NCI-H1395 | 0.417 | 0.369 | 0.375 | 0.385 | 0.366 | 0.724 | 0.657 | 0.726 | 0.712 | 0.607 | 0.932 | 1 | 1.13 | 0.954 | 1.03 | 0.783 | 0.721 | 0.826 | 0.717 | 0.79 |
| NCI-H1355 | 0.631 | 0.791 | 0.504 | 0.561 | 0.518 | 0.346 | 0.326 | 0.364 | 0.369 | 0.324 | 0.404 | 0.441 | 0.392 | 0.416 | 0.418 | 0.532 | 0.516 | 0.554 | 0.632 | 0.586 |
| NCI-H1650 | 0.322 | 0.321 | 0.24 | 0.315 | 0.23 | 0.456 | 0.465 | 0.515 | 0.359 | 0.448 | 0.496 | 0.534 | 0.6 | 0.296 | 0.229 | 0.388 | 0.353 | 0.47 | 0.304 | 0.298 |
| NCI-H1666 | 0.79 | 0.863 | 0.676 | 0.79 | 0.773 | 0.801 | 0.587 | 0.743 | 0.761 | 0.701 | 0.845 | 0.826 | 0.926 | 0.873 | 0.784 | 0.582 | 0.554 | 0.633 | 0.593 | 0.598 |
| HCC-78 | 0.407 | 0.378 | 0.311 | 0.361 | 0.41 | 0.738 | 0.731 | 0.667 | 0.647 | 0.665 |  | 0.671 | 0.676 | 0.382 | 0.356 | 0.312 | 0.32 | 0.378 | 0.308 | 0.259 |
| H3255 | 0.442 | 0.342 | 0.386 | 0.391 | 0.312 | 0.902 | 0.623 | 0.538 | 0.721 | 0.512 | 0.517 | 0.581 | 0.673 | 0.55 | 0.515 | 0.653 | 0.707 | 0.754 | 0.709 | 0.555 |
| NCI-H23 | 0.808 | 0.828 | 0.552 |  | 0.825 | 0.331 | 0.339 | 0.309 | 0.313 | 0.329 | 0.426 | 0.294 | 0.408 | 0.375 | 0.381 | 0.311 | 0.36 | 0.514 | 0.347 | 0.395 |
| NCI-H1944 | 0.241 | 0.205 | 0.169 | 0.196 | 0.202 | 0.468 | 0.452 | 0.433 | 0.431 | 0.429 | 0.354 | 0.449 | 0.45 | 0.407 | 0.38 |  | 0.306 | 0.269 | 0.241 | 0.242 |
